Laboratory results published in publication PMC4457802 (PLoS ONE, 2015).
Values after ≈ are worked out from the molar mass of the structure shown. Like-named read-outs stand apart in the source and are kept apart here. Positions of bridges follow the written chain, without caps; N, C: chain ends. Residues, ends and D or L forms follow the SMILES beside them.

What was measured:
[1] = tested on: S. pneumoniae (30 clinical isolates); assay type: cell-based, Streptococcus pneumoniae; conditions: for MIC S. pneumoniae (30 clinical isolates): broth microdilution, CAMHB, 20-24hr, 37°C, 5% CO2, lowest concentration that completely inhibits growth
Text: (§1) Thirty (30) Pneumococcal clinical isolates were obtained from University of Malaya Medical Centre (UMMC). For broad-spectrum activity of AMPs, E. coli ATCC 25922, Staphylococcus aureus ATCC 25923, P. aeruginosa ATCC 15442, Acinetobacter baumanii ATCC 15308, and one clinical isolate of each methicillin resistant S. aureus (MRSA), […], citrobacter spp., and K. pneumoniae were used in this study.
(§2) The minimum inhibitory concentration (MIC) of the peptides against 30 pneumococcal isolates was determined by broth microdilution protocol as indicated by the CLSI guidelines (Clinical and Laboratory Standards Institute). Briefly, bacterial strains were grown for 18–24 hr at 37°C under 5% CO2. Direct suspension of the colonies were made in cationically-adjusted Müeller-Hinton broth (CAMHB) and adjusted to OD 625 0.08–0.1 which corresponds to 1 ~ 2 x10^8 CFU/ml followed by serial ten-fold dilutions to give 1x10^6 CFU/ml. 50μl of bacterial suspension were added to 96-well round bottom microtiter plates containing equal volume of peptides at different concentrations (1.95, 3.90, 7.81, 15.62, 31.25, 62.5, 125, 250μg/ml) and the 96-well plates were incubated for 20-24hr at 37°C in the presence of 5% CO2.

[2] = tested on: Acinetobacter baumanii ATCC 15308; assay type: cell-based
Text: as §1, §2

E. coli ATCC 25922 = assay type: cell-based
Text: as §1, §2

Enterococcus cloacae = assay type: cell-based
Text: as §1, §2

K. pneumoniae = assay type: cell-based
Text: as §1, §2

[3] = tested on: Methicillin resistant S. aureus (MRSA); assay type: cell-based
Text: as §1, §2

P. aeruginosa ATCC 15442 = assay type: cell-based
Text: as §1, §2

citrobacter spp = assay type: cell-based
Text: as §1, §2

human erythrocytes = experiment: Hemolytic activity assay; assay type: cell-based; conditions: 250μg/ml; 4% human RBCs in PBS, 1hr, 37°C, absorbance 560 nm, relative to 0.1% Triton X-100, triplicate
Experimental: The hemolytic activity of the peptides was tested using human erythrocytes as described previously. Human red blood cells (RBCs) were freshly collected from a healthy donor, washed three times using sterile phosphate buffered saline (PBS) and centrifuged at 2000 rpm for 10 min until the upper solution became clear. RBCs were diluted to a final concentration of 4%, and 100μl of peptides at different concentrations (1.95 to 250μg/ml) were mixed with equivalent volumes of erythrocyte suspensions. After 1hr of incubation at 37°C, the cells were centrifuged at 2000 rpm for 10 min and the absorbance of the supernatants was measured at 560 nm using GloMax Multi Detection System (Promega, USA). PBS and 0.1% Triton X-100 were used as negative and positive controls, respectively. The assay was done in triplicate, and percentage of hemolysis was calculated using the following formula: 100% hemolysis = 100 (Apeptide-APBS) / (Atriton-APBS). We obtained the blood from the Blood Bank of University […] Medical Centre and ethical clearance for this work was approved by the Scientific and Ethical Committee of UMMC (Ethics Committee/IRB Reference No: 321.4). Written informed consent was obtained for each collection.

S. aureus ATCC 25923 = assay type: cell-based, Staphylococcus aureus
Text: as §1, §2

E. coli = conditions: cited from earlier work
S. aureus = conditions: cited from earlier work
[4] = tested on: NL-20 normal lung cell line; assay type: cell-based, human
Experimental: (§3) CellTiter 96 AQueous Non-Radioactive Cell Proliferation assay (Promega, USA) was used to evaluate the cytotoxic effects of peptides. WRL-68 (ATCC CL-48) and NL-20 (ATCC CRL2503) cell lines were purchased from American Type Culture Collection (ATCC, USA). The cell lines were grown in Dulbecco's modified Eagle's medium (DMEM) and Ham’s F-12 medium, respectively. Cells were supplemented with 10% (v/v) fetal bovine serum (FBS) in T75 flasks and incubated at 37°C in the presence of 5% CO2. Cells were seeded into 96-well plates at a density of 1×10^4 and 3×10^4 cells per well, respectively. Peptides were added to the wells at different concentrations (1.95, 3.90, 7.81, 15.62, 31.25, 62.5, 125, and 250μg) and plates were incubated at 37°C under 5% CO2 for 24, 48, and 72 hrs. Medium with and without cells was used as positive and negative controls, respectively. After incubation, 20μl of the reagent were added to each well and incubated for 1 hr at 37°C under 5% CO2. Metabolically active cells convert the yellow MTS to purple formazan, allowing for monitoring of the reaction. The absorbance was monitored at 490 nm using GloMax Multi Detection System (Promega, USA). The percentage of viable cells was calculated according to the following formula: 100 (AT-AB/AC-AB), where AT and AC are the absorbance of treated and control cells (100% survival). AB is the absorbance of medium alone. The assay was done in triplicate.

[5] = tested on: WRL-68 normal liver cell line; assay type: cell-based, human
Experimental: as §3

Streptococcus pneumoniae = experiment: Time killing assay; assay type: cell-based; conditions: 1×MIC, MHB, 37°C, sampled every 30 min to 240 min, triplicate
Experimental: The bactericidal activities of peptides were performed as described previously. […] 10μl of bacterial suspensions were removed at various time intervals (30, 60, 90, 120, 150, 180, 210, and 240 min), serially diluted in PBS and plated onto Columbia agar with 5% sheep blood for 20-24hr at 37°C in the presence of 5% CO2 to obtain viable colonies. Erythromycin and ceftriaxone were used as positive control and the assay was performed in triplicate.

[6] = numbers in parentheses are micromolar concentrations, unit of the source corrected
[7] = numbers in parentheses are micromolar concentrations

Row | Compound | MIC S. pneumoniae (30 clinical isolates), in parentheses [1, 6] [µg/mL] | MIC Acinetobacter baumanii ATCC 15308, in parentheses [2, 7] | MIC E. coli ATCC 25922, in parentheses (E. coli ATCC 25922; [6]) [µg/mL] | MIC Enterococcus cloacae, in parentheses (Enterococcus cloacae; [7]) | MIC K. pneumoniae, in parentheses (K. pneumoniae; [7]) | MIC MRSA, in parentheses [3, 6] [µg/mL] | MIC P. aeruginosa ATCC 15442, in parentheses (P. aeruginosa ATCC 15442; [6]) [µg/mL] | MIC citrobacter spp, in parentheses (citrobacter spp; [7]) | MIC S. pneumoniae (30 clinical isolates) [1] [µg/mL] | MIC S. aureus ATCC 25923, in parentheses (S. aureus ATCC 25923; [6]) [µg/mL] | concentration at which toxic, NL-20 [4] [µg/mL] | concentration at which toxic, WRL-68 [5] [µg/mL] | time to completely kill 10^6 CFU/ml of S. pneumoniae (Streptococcus pneumoniae) [min] | also measured
1 | CC[C@H](C)[C@H](N)C(=O)N[C@@H](CC(C)C)C(=O)N1CCC[C@H]1C(=O)N[C@@H](Cc1c[nH]c2ccccc12)C(=O)N[C@@H](CCCCN)C(=O)N[C@@H](Cc1c[nH]c2ccccc12)C(=O)N1CCC[C@H]1C(=O)N[C@@H](Cc1c[nH]c2ccccc12)C(=O)N[C@@H](Cc1c[nH]c2ccccc12)C(=O)N1CCC[C@H]1C(=O)N[C@@H](Cc1c[nH]c2ccccc12)C(=O)N[C@@H](CCCNC(=N)N)C(=O)N[C@@H](CCCNC(=N)N)C(N)=O [Indolicidin, reference compound] | 15.6 to 31.2 (≈ 8.19 to 16.4 µM) | >250 (131) micromolar | 31.2 (≈ 16.4 µM) | >250 (>131) micromolar | >250 (>131) micromolar | 31.2 (≈ 16.4 µM) | 31.2 (≈ 16.4 µM) | >250 (>131) micromolar | – | – | – | – | – | hemolytic activity (human erythrocytes): 56.98%
2 | CC[C@H](C)[C@H](NC(=O)[C@H](CCSC)NC(=O)[C@H](C)NC(=O)[C@@H]1CCCN1C(=O)[C@@H](NC(=O)[C@@H](NC(=O)[C@H](CCCCN)NC(=O)[C@@H](NC(=O)[C@H](CC(C)C)NC(=O)CNC(=O)CNC(=O)[C@H](CC(C)C)NC(=O)[C@@H](N)Cc1ccccc1)[C@@H](C)CC)[C@@H](C)CC)C(C)C)C(=O)N[C@H]1CSSC[C@@H](C(=O)O)NC(=O)[C@H](CCCCN)NC(=O)[C@H](CCCCN)NC(=O)[C@H]([C@@H](C)O)NC(=O)[C@H](C(C)C)NC(=O)[C@H](C)NC1=O [Ranalexin, reference compound] (H-FLGGLIKIVPAMICAVTKKC-OH; disulfide 14-20; N-terminus assumed) | – | – | – | – | – | – | – | – | – | – | – | – | – | MIC S. pneumoniae (30 clinical isolates), in parentheses ([1]; 30 clinical isolates): 62.5 µg/mL (≈ 29.7 µM); MIC Acinetobacter baumanii ATCC 15308, in parentheses ([2]; ATCC 15308): >250 (>118) micromolar; MIC E. coli ATCC 25922, in parentheses (E. coli ATCC 25922; ATCC 25922): 62.5 µg/mL (≈ 29.7 µM); MIC Enterococcus cloacae, in parentheses (Enterococcus cloacae): >250 (>118) micromolar; MIC K. pneumoniae, in parentheses (K. pneumoniae): >250 (>118) micromolar; MIC MRSA, in parentheses ([3]; Methicillin resistant): 31.2 µg/mL (≈ 14.9 µM); MIC P. aeruginosa ATCC 15442, in parentheses (P. aeruginosa ATCC 15442; ATCC 15442): 125 µg/mL (≈ 59.4 µM); MIC citrobacter spp, in parentheses (citrobacter spp): >250 (>118) micromolar; MIC S. aureus ATCC 25923, in parentheses (S. aureus ATCC 25923; ATCC 25923): 31.2 µg/mL (≈ 14.9 µM); MIC against E. coli (E. coli): 32 µg/mL (≈ 15.2 µM); MIC against S. aureus (S. aureus): 4 µg/mL (≈ 1.9 µM)
3 | FLGGLIKWKWPWWPWRR-NH2 [RN7-IN10, hybrid peptide of ranalexin and indolicidin] | 7.81 to 15.6 | 31.25 (13.51) micromolar | 7.81 | >250 (>108) micromolar | >250 (>108) micromolar | 7.81 | 31.2 | >250 (>108) micromolar | 7.81 to 15.62 | 7.81 | ≥ 125 | ≥ 62.5 | 30 | –
4 | FLGGLIKWPWWPWRR-NH2 [RN7-IN8, hybrid peptide of ranalexin and indolicidin] | 7.81 to 15.6 | 62.5 (31.3) micromolar | 7.81 | >250 (>125) micromolar | >250 (>125) micromolar | 7.81 | 31.2 | >250 (>125) micromolar | 7.81 to 15.62 | 7.81 | ≥ 125 | ≥ 62.5 | 120 | –
5 | FLGGLIKWWPWRR-NH2 [RN7-IN6, hybrid peptide of ranalexin and indolicidin] | 7.81 to 15.6 | 31.25 (18.23) micromolar | 7.81 | >250 (>145.84) micromolar | >250 (>145.84) micromolar | 7.81 | 31.2 | >250 (>145.84) micromolar | 7.81 to 15.62 | 7.81 | ≥ 125 | ≥ 62.5 | 240 | –
